Experiments:
[1] = target: T1, ER membrane acetyl-CoA transport activity (Cricetulus griseus, UniProt G3H231); assay: Acetyl-CoA transport assay into intact ER vesicles; assay type: biochemical, Chinese Hamster
T1 sequence (G3H231 1-550): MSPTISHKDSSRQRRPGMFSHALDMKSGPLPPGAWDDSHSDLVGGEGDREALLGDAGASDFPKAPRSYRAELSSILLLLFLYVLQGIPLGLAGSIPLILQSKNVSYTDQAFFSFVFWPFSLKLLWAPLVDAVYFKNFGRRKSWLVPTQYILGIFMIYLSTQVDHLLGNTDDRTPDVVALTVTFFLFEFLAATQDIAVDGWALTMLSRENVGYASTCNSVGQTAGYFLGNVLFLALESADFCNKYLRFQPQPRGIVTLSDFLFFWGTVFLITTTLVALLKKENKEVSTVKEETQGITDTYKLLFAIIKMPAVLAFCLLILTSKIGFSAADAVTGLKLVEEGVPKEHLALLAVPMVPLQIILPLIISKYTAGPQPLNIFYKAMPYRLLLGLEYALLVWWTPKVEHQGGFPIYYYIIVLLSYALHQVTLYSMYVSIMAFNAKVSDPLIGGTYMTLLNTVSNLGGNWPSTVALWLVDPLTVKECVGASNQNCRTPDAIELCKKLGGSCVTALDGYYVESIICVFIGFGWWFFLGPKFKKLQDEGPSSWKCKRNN

BACE1 = assay: Pulse-chase half-life of BACE1; assay type: cell-based, human; settings: following ceramide treatment; ~16 hours without
Description: Confluent cells were starved for 1 hr in Met/Cys free medium, labeled with 100 μCi [^35S]-Met/Cys (Trans35S-Label, >1000 Ci/mmol; Pierce) in starvation medium/dish and chased for 8, 16, and 24 hours with DMEM supplemented with 5 mM cold Met/Cys. Cell extracts were pre-cleared with BioMag Protein A (Polysciences, Inc.). Beads were used at the concentration of 15 μl of the slurry per sample and separated with a magnetic holder. BACE1 was then immunoprecipitated with anti-BACE1 antibodies and recovered with BioMag Protein A as above. The immunoprecipitate-bead complexes were washed 3 times and boiled in sample buffer. Beads were then separated and the samples were analyzed by reducing SDS-PAGE (on a 4-12% Bis-Tris NuPAGE system) and autoradiography.
FIG. 3 illustrates how transient lysine acetylation controls both translocation along the secretory pathway and molecular stability of the nascent BACE1 protein. […] Immunoprecipitates were analyzed by SDS-PAGE and autoradiography. […] BACE1 was then immunoprecipitated as above and analyzed by reducing SDS-PAGE and autoradiography. Results are expressed as percentage of total newly-synthesized BACE1. […] BACE1 was immunoprecipitated from total cell lysates and analyzed by SDS-PAGE and autoradiography. The half-life of BACE1 from five different readings is shown in FIG. 3(C), whereas a representative radiogram is shown in FIG. 3(D). […]

increase in the Vmax of acetyl-CoA transport ([1]; ER vesicles from ceramide treated cells vs untreated): ~30%
Km of acetyl-CoA transport ([1]; ER vesicles from ceramide treated cells, Lineweaver-Burk): comparable to untreated cells
Compound: CCCCCCCCCCCCC/C=C/[C@@H](O)[C@H](CO)NC(=O)CCCCC [ceramide, C6-ceramide]
half-life of native BACE1 (BACE1): ~24 h

— patent US20090042993A1, “IDENTIFICATION OF NOVEL POST-TRANSLATIONAL PROTEIN MODIFICATIONS” (priority 2007, published 2009)
